Experimental data: ChEMBL document CHEMBL1201862, “PubChem BioAssay data set” (2004)
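Compound exposure: 48 hours, 5 concentrations, 96-well plates. Abbreviation: GI50, concentration required for 50% inhibition of growth.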 Calls of active or inactive are those of the source. Cut-off read from the data, not from the text of the source: active = GI50 up to about 1.1 µM and inactive = higher.

Columns and labels:
Assay in all cases: NCI tumour cell line growth inhibition, 48 h
786-0 = system: 786-0
A498 = system: A498
BT-549 = system: BT-549
COLO 205 = system: COLO 205
HCT-116 = system: HCT-116
HOP-92 = system: HOP-92
Hs-578T = system: Hs-578T
IGROV-1 = system: IGROV-1
M14 = system: M14
MDA-MB-435 = system: MDA-MB-435
MDA-N = system: MDA-N
NCI-H226 = system: NCI-H226
NCI-H522 = system: NCI-H522
PC-3 = system: PC-3
SK-MEL-5 = system: SK-MEL-5
SN12C = system: SN12C
SNB-75 = system: SNB-75
TK-10 = system: TK-10
Malme-3M = system: Malme-3M
NCI/ADR-RES = system: NCI/ADR-RES

Structure (SMILES) | GI50 (786-0) | GI50 (A498) | GI50 (BT-549) | GI50 (COLO 205) | GI50 (HCT-116) | GI50 (HOP-92) | GI50 (Hs-578T) | GI50 (IGROV-1) | GI50 (M14) | GI50 (MDA-MB-435) | GI50 (MDA-N) | GI50 (NCI-H226) | GI50 (NCI-H522) | GI50 (PC-3) | GI50 (SK-MEL-5) | GI50 (SN12C) | GI50 (SNB-75) | GI50 (TK-10) | GI50 (Malme-3M) | GI50 (NCI/ADR-RES)
CC1=C(C(=O)OC(C)(C)C)C(c2ccc([N+](=O)[O-])cc2)C(C(=O)OC(C)(C)C)=C(C)N1 | 22.1 µM (inactive) | 22.8 µM (inactive) | 28 µM (inactive) | 22.6 µM (inactive) | 20.5 µM (inactive) | 15.4 µM (inactive) | 20.2 µM (inactive) | 16.8 µM (inactive) | 23.9 µM (inactive) | 27.9 µM (inactive) | 25.5 µM (inactive) | 21.3 µM (inactive) | 18.5 µM (inactive) | 26.7 µM (inactive) | 18.2 µM (inactive) | 19.8 µM (inactive) | 24.1 µM (inactive) | 20.1 µM (inactive) | – | –
CCC1(CC)C(=O)NN(C(=O)c2ccccc2)C1=O | > 100 µM (inactive) | – | > 100 µM (inactive) | > 100 µM (inactive) | > 100 µM (inactive) | – | > 100 µM (inactive) | > 100 µM (inactive) | > 100 µM (inactive) | > 100 µM (inactive) | > 100 µM (inactive) | > 100 µM (inactive) | > 100 µM (inactive) | > 100 µM (inactive) | > 100 µM (inactive) | > 100 µM (inactive) | 49.4 µM (inactive) | > 100 µM (inactive) | > 100 µM (inactive) | > 100 µM (inactive)
C=CCN(CC=C)Cn1c(=S)sc2ccccc21 | > 100 µM (inactive) | – | > 100 µM (inactive) | 48.6 µM (inactive) | > 100 µM (inactive) | 36.4 µM (inactive) | > 100 µM (inactive) | 36.6 µM (inactive) | > 100 µM (inactive) | > 100 µM (inactive) | > 100 µM (inactive) | – | 18.7 µM (inactive) | > 100 µM (inactive) | 28.8 µM (inactive) | > 100 µM (inactive) | > 100 µM (inactive) | > 100 µM (inactive) | – | > 100 µM (inactive)
COc1cc2c3c(c1)c1cc(OC)c(OC)cc1c[n+]3CC2 | 1.61 µM (inactive) | > 50 µM (inactive) | 2.63 µM (inactive) | 7.29 µM (inactive) | 8.36 µM (inactive) | – | 3.1 µM (inactive) | 17.5 µM (inactive) | > 50 µM (inactive) | 25.8 µM (inactive) | 24.8 µM (inactive) | 14.2 µM (inactive) | 0.927 µM (active) | 25.8 µM (inactive) | 13.6 µM (inactive) | 1.53 µM (inactive) | – | > 50 µM (inactive) | 0.991 µM (active) | > 50 µM (inactive)
Cc1ccc2nc3n(c2c1)C(c1c(F)cccc1F)SC3 (stereo not given) | > 100 µM (inactive) | > 100 µM (inactive) | > 100 µM (inactive) | > 100 µM (inactive) | > 100 µM (inactive) | 49.3 µM (inactive) | > 100 µM (inactive) | > 100 µM (inactive) | > 100 µM (inactive) | – | > 100 µM (inactive) | > 100 µM (inactive) | 55.5 µM (inactive) | > 100 µM (inactive) | > 100 µM (inactive) | > 100 µM (inactive) | > 100 µM (inactive) | > 100 µM (inactive) | > 100 µM (inactive) | > 100 µM (inactive)
Cc1ccc(S(=O)(=O)NC(=O)Nc2ccc(S(N)(=O)=O)cc2S(N)(=O)=O)cc1 | > 100 µM (inactive) | – | > 100 µM (inactive) | > 100 µM (inactive) | > 100 µM (inactive) | > 100 µM (inactive) | > 100 µM (inactive) | > 100 µM (inactive) | > 100 µM (inactive) | > 100 µM (inactive) | > 100 µM (inactive) | > 100 µM (inactive) | > 100 µM (inactive) | > 100 µM (inactive) | > 100 µM (inactive) | > 100 µM (inactive) | > 100 µM (inactive) | > 100 µM (inactive) | > 100 µM (inactive) | > 100 µM (inactive)
NC1=Nc2ccccc2Sc2cccc(F)c21 | > 100 µM (inactive) | 34.4 µM (inactive) | 95.3 µM (inactive) | 61.7 µM (inactive) | 29.1 µM (inactive) | > 100 µM (inactive) | – | > 100 µM (inactive) | 50.9 µM (inactive) | 74 µM (inactive) | 46.1 µM (inactive) | 66.5 µM (inactive) | 64.4 µM (inactive) | 63.5 µM (inactive) | 38 µM (inactive) | > 100 µM (inactive) | 46.5 µM (inactive) | > 100 µM (inactive) | > 100 µM (inactive) | 43.7 µM (inactive)
Nc1cccc(Nc2nc3ccccc3nc2NS(=O)(=O)c2ccccc2)c1 | 29 µM (inactive) | – | 6.65 µM (inactive) | 15.8 µM (inactive) | 17.3 µM (inactive) | 23.3 µM (inactive) | 41.7 µM (inactive) | 24.5 µM (inactive) | 26.2 µM (inactive) | 23.6 µM (inactive) | 33.4 µM (inactive) | 38 µM (inactive) | – | 19.5 µM (inactive) | 15.4 µM (inactive) | 26 µM (inactive) | 36.2 µM (inactive) | 42 µM (inactive) | 28.6 µM (inactive) | 27.3 µM (inactive)
COc1ccc2c(c1)O[C@@H]1C(O)Oc3cc(OC)c(OC)cc3[C@]1(O)C2=O (stereo not given in full) | > 100 µM (inactive) | 82.6 µM (inactive) | 12.6 µM (inactive) | 95.1 µM (inactive) | 86.3 µM (inactive) | – | 20.2 µM (inactive) | > 100 µM (inactive) | > 100 µM (inactive) | 50.8 µM (inactive) | 50.1 µM (inactive) | 10.4 µM (inactive) | 5.33 µM (inactive) | 59.6 µM (inactive) | 10.5 µM (inactive) | > 100 µM (inactive) | > 100 µM (inactive) | > 100 µM (inactive) | – | 30.4 µM (inactive)
O=c1cc(CNC2CC3CCC2C3)[nH]c(=O)[nH]1 (stereo not given) | > 100 µM (inactive) | > 100 µM (inactive) | > 100 µM (inactive) | > 100 µM (inactive) | > 100 µM (inactive) | – | > 100 µM (inactive) | > 100 µM (inactive) | > 100 µM (inactive) | > 100 µM (inactive) | > 100 µM (inactive) | – | > 100 µM (inactive) | > 100 µM (inactive) | > 100 µM (inactive) | > 100 µM (inactive) | > 100 µM (inactive) | > 100 µM (inactive) | > 100 µM (inactive) | > 100 µM (inactive)
[O-]/[N+](=N\c1ccccc1CO)c1ccccc1CO | > 100 µM (inactive) | > 100 µM (inactive) | > 100 µM (inactive) | > 100 µM (inactive) | > 100 µM (inactive) | – | > 100 µM (inactive) | – | > 100 µM (inactive) | > 100 µM (inactive) | > 100 µM (inactive) | > 100 µM (inactive) | > 100 µM (inactive) | > 100 µM (inactive) | > 100 µM (inactive) | > 100 µM (inactive) | 84.7 µM (inactive) | > 100 µM (inactive) | > 100 µM (inactive) | > 100 µM (inactive)
CCc1cccc(CC)c1Nc1nc(-c2ccccc2-c2ccccc2)cs1 | > 100 µM (inactive) | > 100 µM (inactive) | 18.2 µM (inactive) | 66.5 µM (inactive) | 51.2 µM (inactive) | 46.6 µM (inactive) | 70.6 µM (inactive) | 43.7 µM (inactive) | 92.9 µM (inactive) | 35 µM (inactive) | 50.8 µM (inactive) | – | 84.7 µM (inactive) | 53.2 µM (inactive) | 79.1 µM (inactive) | > 100 µM (inactive) | 29.5 µM (inactive) | 82.2 µM (inactive) | > 100 µM (inactive) | –
O=C(NCCNCCNC(=O)C(F)(F)F)C(F)(F)F | > 100 µM (inactive) | – | > 100 µM (inactive) | > 100 µM (inactive) | > 100 µM (inactive) | – | > 100 µM (inactive) | > 100 µM (inactive) | > 100 µM (inactive) | > 100 µM (inactive) | > 100 µM (inactive) | > 100 µM (inactive) | – | > 100 µM (inactive) | > 100 µM (inactive) | > 100 µM (inactive) | – | > 100 µM (inactive) | > 100 µM (inactive) | > 100 µM (inactive)
CC1=CC(C)(C)[C@H]2O[C@@]3(O)C[C@]4(C)[C@H]5C[C@@](C(C)C)(O[C@H]4c4ccoc4)O[C@H]4[C@]5(C3)O[C@@]1(O)[C@]24O | 89.1 µM (inactive) | – | > 100 µM (inactive) | > 100 µM (inactive) | 61.8 µM (inactive) | 83.8 µM (inactive) | 18.7 µM (inactive) | > 100 µM (inactive) | > 100 µM (inactive) | > 100 µM (inactive) | > 100 µM (inactive) | > 100 µM (inactive) | 5.26 µM (inactive) | > 100 µM (inactive) | 44.2 µM (inactive) | > 100 µM (inactive) | 12.3 µM (inactive) | > 100 µM (inactive) | 40.9 µM (inactive) | > 100 µM (inactive)
CC(=O)C(C(=O)C(C)(C)C)C(=O)C(C)(C)C | > 100 µM (inactive) | – | > 100 µM (inactive) | > 100 µM (inactive) | > 100 µM (inactive) | > 100 µM (inactive) | > 100 µM (inactive) | – | > 100 µM (inactive) | > 100 µM (inactive) | > 100 µM (inactive) | – | > 100 µM (inactive) | > 100 µM (inactive) | > 100 µM (inactive) | > 100 µM (inactive) | 59.4 µM (inactive) | > 100 µM (inactive) | > 100 µM (inactive) | > 100 µM (inactive)
